From patent publication US7041280B2, “Aryl boronate functionalized polymers for treating obesity” (Genzyme Corporation, priority 2001, dated 2006)

Tested on: fat absorption through lipase inhibition in rats
Settings: rats gavaged with 4 mL olive oil emulsion with drug after 18 hour fast, intestinal contents after 8 hours; for In Vivo Infusion Assay in Rats ED50 (mg/g fat) or estimate: dose at half the maximum recoverable triglyceride; for In Vivo Infusion Assay in Rats Ed50 (mg/kg body wt) or estimate: dose per body weight
Protocol: Compounds were evaluated in rats to determine their in vivo potency in inhibiting fat absorption through lipase inhibition. Rats were acclimated to the facility for approximately 1 week in individual wire-bottom cages and provided a standard chow diet and water ad libitum. […] Test compounds were dissolved in DMSO or deionized water. Drug solutions were mixed thoroughly in the olive oil emulsion just prior to administration. After 8 hours, rats were euthanized with CO2 and the intestines were removed. The intestinal contents were harvested from the lower half of the small intestine and the cecum. Contents were placed in separate, pre-weighed, 15 milliliter conical screw cap tubes in a (dry ice/alcohol bath) to maintain freezing temperature until the final freeze of all samples. Samples were stored at −80° C. until lyophilization.
Samples were freeze-dried and ground, then analyzed for triglyceride and fatty acid.
A 20 milligram aliquot of each sample was weighed and transferred to a 15 milliliters conical tube. 3 milliliters of hexane were added to each tube, which were capped and vortexed for 15 seconds at high speed. 3 milliliters of 1 N HCl were added and the samples were then subjected to wrist-action shaking for 1 hour. Samples were then centrifuged for 5 minutes at 3500 rpm and the hexane layer was collected. An aliquot of the hexane layer was diluted in hexane and analyzed for triglyceride, diglyceride and fatty acid by HPLC as described above.
The data was expressed as follows. The milligrams of intestinal contents that was extracted and the total number of milligrams collected were recorded. The milligrams/milliliters values obtained from the HPLC analysis were entered. The individual lipid components were calculated and expressed as total milligrams recovered. Dose units are expressed as the milligrams of drug per gram of oil administered to each rat. The ED50's were determined by extrapolating the dose value at half the maximum obtainable triglyceride recoverable in the assay.

| Substance | In Vivo Infusion Assay in Rats ED50 (mg/g fat) or estimate | In Vivo Infusion Assay in Rats Ed50 (mg/kg body wt) or estimate |
| --- | --- | --- |
| Poly(N-diethanolaminopropyl)acrylamide conjugated with 4-(14′-hydroxy-3′-thia-1′-ketotetradecyl)-3-fluorophenylboronic acid [Polymer 5] | 50 mg/g fat | 375 mg/kg body wt |
| Poly(N-diethanolaminopropyl)acrylamide conjugated with 4-(14′-hydroxy-3′-thia-1′-ketotetradecyl)phenylboronic acid [Polymer 6] | 36 mg/g fat | 270 mg/kg body wt |
| poly(N-diethanolaminopropyl)acrylamide conjugated with 4-(14′-trimethylammonium-3′-thia-1′-ketotetradecyl)-3-fluorophenylboronic acid bromide [Polymer 1] | 3 mg/g fat | 22.5 mg/kg body wt |
| poly(N-diethanolaminopropyl)acrylamide conjugated with 4-(14′-trimethylammonium-3′-thia-1′-ketotetradecyl)-3-fluorophenylboronic acid bromide [Polymer 2] | 4.5 mg/g fat | 33.8 mg/kg body wt |
| poly(N-diethanolaminopropyl)acrylamide conjugated with 4-(14′-trimethylammonium-3′-thia-1′-ketotetradecyl)phenylboronic acid bromide [Polymer 3] | 20 mg/g fat | 150 mg/kg body wt |
